This is an account of results in patent US10898481B2 (priority 2018, dated 2021).

In experiment [1] the target is hADORA1/CHO (hA1 expressing) cells (Homo sapiens (Human), UniProt P30542). As to the kind of experiment: cell-based. The note with it: FLIPR inhibition, 10 μM adenosine, read-out: cAMP & FLIPR IC50 (nM) hA1.
The next experiment concerns the target hA2a/CHO (Homo sapiens (Human), UniProt P29274). As to the kind of experiment: cAMP inhibition assay in hA2a/CHO cells, 10 μM adenosine.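 Note: compounds added to cells 30 min ahead of adenosine, then a further 30 min at 37 °C with adenosine before cAMP detection.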 In kind it is cell-based. As to conditions: read-out: cAMP & FLIPR IC50 (nM) hA2a.
Another experiment concerns the target hA2b/CHO (Homo sapiens (Human), UniProt P29275). The experiment in a line: cAMP inhibition assay in hA2b/CHO cells, 10 μM adenosine.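 Note: cells exposed to compound 30 min at 37 °C, then stimulated with adenosine a further 30 min, cAMP read after 60 min at room temperature.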 The note with it: read-out: cAMP & FLIPR IC50 (nM) hA2b. In kind it is cell-based.
The target of a further experiment is mA2a/CHO (Mus musculus (Mouse), UniProt Q60613). As to the kind of experiment: cAMP inhibition assay in mA2a/CHO cells, 10 μM adenosine.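 Note: compounds preincubated 30 min at 37 °C before the adenosine challenge, then 30 min further stimulation, readout after 60 min detection reagent incubation at room temperature in 384-well plates.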 In kind it is cell-based. As to conditions: read-out: cAMP & FLIPR IC50 (nM) mA2a.
mA2a/CHO, sequence (Q60613 whole entry): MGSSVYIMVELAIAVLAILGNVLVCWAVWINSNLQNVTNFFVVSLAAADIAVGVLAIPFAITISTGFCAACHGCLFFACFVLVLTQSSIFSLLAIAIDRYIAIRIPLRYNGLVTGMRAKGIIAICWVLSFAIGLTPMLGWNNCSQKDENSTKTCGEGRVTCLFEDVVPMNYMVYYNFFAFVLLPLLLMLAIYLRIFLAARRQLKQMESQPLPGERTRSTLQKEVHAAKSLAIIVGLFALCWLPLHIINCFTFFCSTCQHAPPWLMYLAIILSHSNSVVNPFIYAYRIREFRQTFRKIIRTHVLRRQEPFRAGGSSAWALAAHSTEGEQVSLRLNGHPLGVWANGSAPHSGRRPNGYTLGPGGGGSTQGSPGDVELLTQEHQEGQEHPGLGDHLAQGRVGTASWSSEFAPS

hADORA1/CHO (hA1 expressing) cells, sequence (P30542 whole entry): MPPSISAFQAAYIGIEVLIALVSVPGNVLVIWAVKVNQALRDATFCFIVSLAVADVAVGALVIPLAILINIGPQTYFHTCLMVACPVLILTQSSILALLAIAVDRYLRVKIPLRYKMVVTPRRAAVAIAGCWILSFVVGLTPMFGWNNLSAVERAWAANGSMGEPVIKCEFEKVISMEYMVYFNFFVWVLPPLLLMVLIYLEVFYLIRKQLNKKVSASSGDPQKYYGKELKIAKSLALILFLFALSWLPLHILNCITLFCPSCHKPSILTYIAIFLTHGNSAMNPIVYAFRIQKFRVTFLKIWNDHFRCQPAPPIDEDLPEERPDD
hA2b/CHO, sequence (P29275 whole entry): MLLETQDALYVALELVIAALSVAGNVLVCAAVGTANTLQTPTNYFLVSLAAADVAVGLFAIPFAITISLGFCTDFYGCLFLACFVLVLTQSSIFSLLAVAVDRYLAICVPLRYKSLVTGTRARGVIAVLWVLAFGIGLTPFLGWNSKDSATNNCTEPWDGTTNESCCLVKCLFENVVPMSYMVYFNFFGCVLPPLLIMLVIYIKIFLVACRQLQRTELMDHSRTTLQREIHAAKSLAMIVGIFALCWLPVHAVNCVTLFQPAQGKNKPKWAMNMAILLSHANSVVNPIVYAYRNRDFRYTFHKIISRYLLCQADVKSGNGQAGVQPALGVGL
hA2a/CHO, sequence (P29274 whole entry): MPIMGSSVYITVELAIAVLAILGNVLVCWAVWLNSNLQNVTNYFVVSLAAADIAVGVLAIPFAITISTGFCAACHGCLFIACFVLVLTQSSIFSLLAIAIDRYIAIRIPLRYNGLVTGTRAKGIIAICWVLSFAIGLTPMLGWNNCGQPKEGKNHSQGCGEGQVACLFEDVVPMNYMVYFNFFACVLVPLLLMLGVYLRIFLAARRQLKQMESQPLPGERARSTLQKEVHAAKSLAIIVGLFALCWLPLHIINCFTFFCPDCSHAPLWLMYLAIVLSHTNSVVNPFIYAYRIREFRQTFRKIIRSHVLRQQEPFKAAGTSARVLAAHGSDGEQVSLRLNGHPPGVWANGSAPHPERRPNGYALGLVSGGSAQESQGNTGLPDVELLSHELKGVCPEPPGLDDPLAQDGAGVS
Description for hA2a/CHO: (§1) hA2a/CHO, hA2b/CHO, hA3/CHO and mA2a/CHO (Genscript) were plated at 5×10^3 cells/well into 384-well polystyrene plates at the day of experiment. Compounds were pre-incubated with cells for 30 min at 37° C., 5% CO2. Then 10 μM adenosine was added to the cells and incubated for 30 min at 37° C., 5% CO2. Detection reagent (CISBIO) was added and the plates were incubated for 60 min at room temperature. The signal was captured by Envision.
Description for hA2b/CHO: as §1
Description for mA2a/CHO: as §1

On to `Cc1cnc2ccc(-c3nc(C(=O)NCC4CN(C)CCO4)c(N)nc3-c3ncco3)cn12` (racemic) [Example 207, rac-3-amino-6-(3-methylimidazo[1,2-a]pyridin-6-yl)-N-((4-methylmorpholin-2-yl)methyl)-5-(oxazol-2-yl)pyrazine-2-carboxamide], for which the half-inhibitory concentration (IC50) came to 5950 nM in experiment [1], 12 nM on hA2a/CHO, 774 nM at hA2b/CHO and 44 nM on mA2a/CHO.
For `Cc1cnc2ccc(-c3nc(C(=O)NCC4COCCO4)c(N)nc3-c3ncco3)cn12` (racemic) [Example 211, rac-N-((1,4-dioxan-2-yl)methyl)-3-amino-6-(3-methylimidazo[1,2-a]pyridin-6-yl)-5-(oxazol-2-yl)pyrazine-2-carboxamide] the same measures were 319 nM, 3.6 nM, 160 nM and 19 nM.
The like results for `Cc1cnc2ccc(-c3nc(C(=O)NCC4CCC(=O)N4C)c(N)nc3-c3ncco3)cn12` (racemic) [Example 212, rac-3-amino-N-((1-methyl-5-oxopyrrolidin-2-yl)methyl)-6-(3-methylimidazo [1,2-a]pyridin-6-yl)-5-(oxazol-2-yl) pyrazine-2-carboxamide] were, in that order, over 10000 nM, 34 nM, 3430 nM and 175 nM.
For `COC(C)CNC(=O)c1nc(-c2ccc3ncc(C)n3c2)c(-c2ncco2)nc1N` (racemic) [Example 228, rac-3-amino-N-(2-methoxypropyl)-6-(3-methylimidazo[1,2-a]pyridin-6-yl)-5-(oxazol-2-yl)pyrazine-2-carboxamide] the same measures were 2020 nM, 2.7 nM, 210 nM and 23 nM.
On to `CN1CCCC1CNC(=O)c1nc(-c2ccc3ncc(C(F)(F)F)n3c2)c(-c2ncco2)nc1N` (single isomer, unassigned) [Cmpd. 202, 3-amino-N-[[1-methylpyrrolidin-2-yl]methyl]-5-(1,3-oxazol-2-yl)-6-[3-(trifluoromethyl)imidazo[1,2-a]pyridin-6-yl]pyrazine-2-carboxamide], for which the IC50 in experiment [1] stood at 6920 nM; on hA2a/CHO it was 17 nM; on hA2b/CHO, 1130 nM; at mA2a/CHO, 105 nM.
As to `CN1CCCC1CNC(=O)c1nc(-c2ccc3ncc(C(F)(F)F)n3c2)c(-c2ncco2)nc1N` (single isomer, unassigned) [Cmpd. 206], the IC50 in experiment [1] was 2490 nM; on hA2a/CHO, 5.3 nM; on hA2b/CHO it was 707 nM; on mA2a/CHO, 50 nM.
For `CC(O)Cn1cc(-c2nc(C(=O)NCc3c(F)cccc3F)c(N)nc2-c2ncco2)ccc1=O` (single isomer, unassigned) [Example 107, 3-amino-N-(2,6-difluorobenzyl)-6-(1-(2-hydroxypropyl)-6-oxo-1,6-dihydropyridin-3-yl)-5-(oxazol-2-yl)pyrazine-2-carboxamide] the same measures were 341 nM, 76 nM, 3490 nM and 166 nM.
For `CC(O)Cn1cc(-c2nc(C(=O)NCc3c(F)cccc3F)c(N)nc2-c2ncco2)ccc1=O` (single isomer, unassigned) [Example 108, 3-amino-N-(2,6-difluorobenzyl)-6-(1-(2-hydroxypropyl)-6-oxo-1,6-dihydropyridin-3-yl)-5-(oxazol-2-yl)pyrazine-2-carboxamide] the same measures were 55 nM, 0.6 nM, 132 nM and 3.6 nM.
For `Cc1cnc2ccc(-c3nc(C(=O)NCC4CCCCN4C)c(N)nc3-c3ncco3)cn12` (single isomer, unassigned; isomer 1) [Example 124, 3-amino-6-(3-methylimidazo[1,2-a]pyridin-6-yl)-N-((1-methylpiperidin-2-yl)methyl)-5-(oxazol-2-yl)pyrazine-2-carboxamide (isomer 1)], the IC50 was 10000 nM in experiment [1], 2260 nM at hA2a/CHO, at least 10000 nM at hA2b/CHO and at least 10000 nM on mA2a/CHO.
For the compound `Cc1cnc2ccc(-c3nc(C(=O)N[C@H]4CCCOC4)c(N)nc3-c3ncco3)cn12` (single isomer, unassigned; isomer 1) [Example 163, 3-amino-6-(3-methylimidazo[1,2-a]pyridin-6-yl)-5-(oxazol-2-yl)-N-(tetrahydro-2H-pyran-3-yl)pyrazine-2-carboxamide (isomer 1)], the IC50 in experiment [1] was over 10000 nM; on hA2a/CHO it was 3.28 nM; on hA2b/CHO, 387 nM; on mA2a/CHO, 22 nM.
For the compound `Cc1cnc2ccc(-c3nc(C(=O)NCC4CCCCO4)c(N)nc3-c3ncco3)cn12` (single isomer, unassigned; isomer 1) [Example 165, 3-amino-6-(3-methylimidazo[1,2-a]pyridin-6-yl)-5-(oxazol-2-yl)-N-((tetrahydro-2H-pyran-2-yl)methyl) pyrazine-2-carboxamide (isomer 1)], the IC50 in experiment [1] amounted to 207 nM; on hA2a/CHO it was 0.24 nM; at hA2b/CHO, 73 nM; on mA2a/CHO it was 1.42 nM.
For `Cc1cnc2ccc(-c3nc(C(=O)NCC4CC(=O)N(C)C4)c(N)nc3-c3ncco3)cn12` (single isomer, unassigned; isomer 1) [Example 213, 3-amino-N-((1-methyl-5-oxopyrrolidin-3-yl)methyl)-6-(3-methylimidazo[1,2-ajpyridin-6-yl)-5-(oxazol-2-yl)pyrazine-2-carboxamide (isomer 1)] the same measures were 505 nM, 22 nM, 2530 nM and 54 nM.
The like results for `Cc1cnc2ccc(-c3nc(C(=O)NCC4CN(C)CCO4)c(N)nc3-c3ccc(F)cc3)cn12` (single isomer, unassigned; isomer 1) [Example 246, 3-amino-5-(4-fluorophenyl)-6-(3-methylimidazo[1,2-a]pyridin-6-yl)-N-((4-methylmorpholin-2-yl)methyl) pyrazine-2-carboxamide (isomer 1)] were, in that order, 44 nM, 17 nM, 1100 nM and 67 nM.
Regarding `COC(C)CNC(=O)c1nc(-c2ccc3ncc(C)n3c2)c(-c2ncco2)nc1N` (single isomer, unassigned; isomer 1) [Example 248, 3-amino-N-(2-methoxypropyl)-6-(3-methylimidazo[1,2-a]pyridin-6-yl)-5-(oxazol-2-yl)pyrazine-2-carboxamide (isomer 1)], the IC50 in experiment [1] was found to be 121 nM; at hA2a/CHO, 2.9 nM; on hA2b/CHO, 140 nM; on mA2a/CHO, 18 nM.
For `Cc1cnc2ccc(-c3nc(C(=O)NCC4(C)CCOC4)c(N)nc3-c3ncco3)cn12` (single isomer, unassigned; isomer 1) [Example 251, 3-amino-6-(3-methylimidazo[1,2-a]pyridin-6-yl)-N-((3-methyltetrahydrofuran-3-yl)methyl)-5-(oxazol-2-yl)pyrazine-2-carboxamide (isomer 1)] the same measures were 425 nM, 4.7 nM, 657 nM and 34 nM.
For `Cc1cnc2ccc(-c3nc(C(=O)N[C@@H]4CCCOC4)c(N)nc3-c3ncco3)cn12` (single isomer, unassigned; isomer 2) [Example 164, 3-amino-6-(3-methylimidazo[1,2-a]pyridin-6-yl)-5-(oxazol-2-yl)-N-(tetrahydro-2H-pyran-3-yl)pyrazine-2-carboxamide (isomer 2)] the same measures were over 10000 nM, 0.94 nM, 479 nM and 12.7 nM.
For `Cc1cnc2ccc(-c3nc(C(=O)NCC4CCCCO4)c(N)nc3-c3ncco3)cn12` (single isomer, unassigned; isomer 2) [Example 166, 3-amino-6-(3-methylimidazo[1,2-a]pyridin-6-yl)-5-(oxazol-2-yl)-N-((tetrahydro-2H-pyran-2-yl)methyl) pyrazine-2-carboxamide (isomer 2)] the same measures were 358 nM, 0.24 nM, 47 nM and 1.48 nM.
On to `Cc1cnc2ccc(-c3nc(C(=O)NCC4CC(=O)N(C)C4)c(N)nc3-c3ncco3)cn12` (single isomer, unassigned; isomer 2) [Example 210, 3-amino-N-((1-methyl-5-oxopyrrolidin-3-yl)methyl)-6-(3-methylimidazo[1,2-a]pyridin-6-yl)-5-(oxazol-2-yl)pyrazine-2-carboxamide (isomer 2)], for which the IC50 in experiment [1] amounted to 14700 nM; at hA2a/CHO, 11 nM; on hA2b/CHO, 972 nM; on mA2a/CHO, 88 nM.
For the compound `COc1ccccc1CNC(=O)c1nc(-c2cc(C)nc(C)c2)c(-c2ccccc2)nc1N` [Example 93, 3-amino-6-(2,6-dimethylpyridin-4-yl)-N-(2-methoxybenzyl)-5-phenylpyrazine-2-carboxamide], the concentration for half-maximal inhibition (IC50) on hA2a/CHO came out at 8 nM; on hA2b/CHO it was 354 nM; on mA2a/CHO it was 127 nM.
For `Cc1cnc2ccc(-c3nc(CNC(=O)[C@H]4CCCN4C)c(N)nc3-c3ccc(F)cc3)cn12` [Example 157, (2R)—N-[[3-amino-5-(4-fluorophenyl)-6-[3-methylimidazo[1,2-a]pyridin-6-yl]pyrazin-2-yl]methyl]-1-methylpyrrolidine-2-carboxamide] the same measures were 0.3 nM, 59 nM and 2.9 nM.

For orientation: IC50 means the concentration that inhibits the measured activity by half.
